Key:
Type in all cases: in vivo
[1] = test system: DSS mice; experiment: DSS colitis, inosine versus 5′-IMS at 50, 100 and 300 μmoles/kg/day
From the text: The effect of various doses (50, 100 and 300 μmoles/kg/day) inosine and IMS on the outcome of DSS (dextran sodium sulfate) colitis in mice. Colonic length, gross histologic score, colonic MDA content and colonic MPO content have been determined. N=10 animals per experimental groups. *p<0.05 and **p<0.01 indicates significant improvements in drug treated DSS animals, when compared to vehicle treated DSS animals. Mean +SEM are presented, except for histological scores, which are presented as medians.
Significant improvements in 5′-IMS treated DSS animals was observed as compared to vehicle treated DSS animals. Mean ±SEM are shown, except for the histological scores, which are presented as medians.

[2] = test system: DBA/1J mice; experiment: Collagen-induced arthritis: incidence and severity
Procedure: The effect of 5′-IMS in a murine model system of collagen-induced arthritis was studied. Male DBA/1J mice were injected intradermally on day 1 with 0.1 mL of an emulsion of bovine type II collagen plus complete Freunds's adjuvant (CFA). A second injection was administered on day 21. Treatment with 5′-IMS (100 or 200 mg/kg/day, BID) per gavage was begun on the day of the second collagen/CFA injection and continued throughout the study, which was terminated on day 45 (24 days after the second injection).
(§1) Mice were evaluated daily for arthritis by using a macroscopic scoring system ranging from 0-4 (0=no signs of arthritis, 1=swelling or redness of the paw or one digit, 2=two joints involved, 3=more than 2 joints involved, 4=severe arthritis of the entire paw). The arthritic index for each mouse was calculated by adding the four scores of the individual paws. […] At study termination, paws were removed from all animals in each treatment group and randomly assigned to MPO, MDA or chemokines/cytokine measurements.
Arthritis was induced in DBA/1J mice by two 100 μL sub-dermal injections of a 1:1 mixture of bovine collagen type II (1 mg/mL) and complete Freund's adjuvant (1 mg/mL) 21 days apart. Gavage treatment with 5′-IMS (100 or 200 mg/kg/day, BID) commenced on the day of the second injection. […] Statistical analysis was performed by Student's t-test or fisher's exact test as appropriate. […]

[3] = test system: DBA/1J mice; experiment: Collagen-induced arthritis: chemokine and cytokine levels in paws; conditions: 200 mg/kg/day gavage, 24 days after second collagen injection
Procedure: as §1
The effect of 5′-IMS on the levels of the chemokine MIP-1α and the cytokines 1L-12 and TNF-α in paws of DBA/1J mice treated with subdermal injections of collagen to induce arthritis was studied. Gavage treatment with 5′-IMS (100 or 200 mg/kg/day, BID) commenced on the day of the second collagen injection and paws were taken 24 days later and homogenized for analysis. […] Data are expressed as mean ±SEM from n=10 animals. […] Accordingly, 5′-IMS, an illustrative inosine compound, is useful for treating or preventing an inflammation disease, particularly arthritis, in a patient.

[4] = test system: DBA/1J mice; experiment: Collagen-induced arthritis: MPO and MDA levels in paws; conditions: 100 or 200 mg/kg/day, BID, gavage; paws 24 days after second collagen injection
Procedure: as §1
The effect of 5′-IMS on the levels of MPO and MDA in paws of DBA/1J mice treated with subdermal injections of collagen to induce arthritis was studied. Gavage treatment with 5′-IMS (100 or 200 mg/kg/day, BID) commenced on the day of the second collagen injection and paws were taken 24 days later and homogenized for MPO and MDA measurements. Data are expressed as mean ±SEM from n=10 animals. […] Accordingly, 5′-IMS, an illustrative inosine compound, is useful for treating or preventing an inflammation disease, particularly arthritis, in a patient.

[5] = 50, 100 and 300 μmoles/kg/day, vs vehicle treated DSS animals

## O=S(=O)(O)OC[C@H]1O[C@@H](n2cnc3c(O)ncnc32)[C@H](O)[C@@H]1O [5′-IMS, inosine 5′-monosulfate]
[1]; [5]
  protection against colonic shortening: provided significant protection
  protection against visible histological damage: provided significant protection
[1]; first statement ('For example')
  dose at which colonic MDA levels were reduced: 50 µmol/kg/day
[1]; second statement of b313
  dose at which MDA levels were reduced (second statement, 'Similarly'): 50 µmol/kg/day
[2]; 100 or 200 mg/kg/day, BID, gavage
  severity of arthritis: significantly reduced
[2]; both dosing regimens (100 or 200 mg/kg/day, BID, gavage), day 24 post second collagen injection, reduced from 90%
  prevalence of arthritis: 25%
[3]
  levels of MIP-1α in paws: significantly reduced
  levels of TNF-α in paws: significantly reduced
[3]; p=0.09
  IL-12 levels in paws: tended to reduce
[4]
  lipid peroxidation (reflected by MDA) in joints: profoundly reduced
  neutrophil infiltration (reflected by MPO concentration) in joints: profoundly reduced
